Measured values reported in publication PMC3130141 (Archives of Drug Information, 2011).

Test system: Japanese patients with advanced solid tumors
Assay: Laboratory assessments
Format: in vivo, human
Conditions: for Blood sodium decreased, patients with grade ≥3 abnormal laboratory finding: cut-off <130 mmol/L; for Lymphocyte count decreased, patients with grade ≥3 abnormal laboratory finding / Lymphopenia, patients with grade ≥3 abnormal laboratory finding: cut-off <0.5 × 10^9/L; for Neutropenia, patients with grade ≥3 abnormal laboratory finding: cut-off <1.0 × 10^9/L; for Leukopenia, patients with grade ≥3 abnormal laboratory finding: cut-off <2.0 × 10^9/L; for Hemoglobin decreased, patients with grade ≥3 abnormal laboratory finding: cut-off <8.0 g/dL; for Thrombocytopenia, patients with grade ≥3 abnormal laboratory finding: cut-off <50.0 × 10^9/L; for Weight decreased, patients with grade ≥3 abnormal vital sign: cut-off ≥20% from baseline
[1] = Cycle 1, Day 8, Total, all doses (N = 18)
[2] = Cycle 1, Day 15, Total, all doses (N = 18)

Compound: Cc1ccc(C(=O)N(CCCN)C(c2nc3snc(C)c3c(=O)n2Cc2ccccc2)C(C)C)cc1 (stereo not drawn) [AZD4877]
- Any grade ≥3 finding/vital sign, patients with grade ≥3 abnormal laboratory findings/vital signs (10 mg (N = 3)): 1 (33) N (%)
- Blood sodium decreased, patients with grade ≥3 abnormal laboratory finding (10 mg (N = 3)): 0 N (%)
- Lymphocyte count decreased, patients with grade ≥3 abnormal laboratory finding (10 mg (N = 3)): 0 N (%)
- Lymphopenia, patients with grade ≥3 abnormal laboratory finding (10 mg (N = 3)): 0 N (%)
- Neutropenia, patients with grade ≥3 abnormal laboratory finding (10 mg (N = 3)): 1 (33) N (%)
- Leukopenia, patients with grade ≥3 abnormal laboratory finding (10 mg (N = 3)): 0 N (%)
- Hemoglobin decreased, patients with grade ≥3 abnormal laboratory finding (10 mg (N = 3)): 0 N (%)
- Thrombocytopenia, patients with grade ≥3 abnormal laboratory finding (10 mg (N = 3)): 0 N (%)
- Weight decreased, patients with grade ≥3 abnormal vital sign (10 mg (N = 3)): 0 N (%)
- Any grade ≥3 finding/vital sign, patients with grade ≥3 abnormal laboratory findings/vital signs (15 mg (N = 3)): 1 (33) N (%)
- Blood sodium decreased, patients with grade ≥3 abnormal laboratory finding (15 mg (N = 3)): 0 N (%)
- Lymphocyte count decreased, patients with grade ≥3 abnormal laboratory finding (15 mg (N = 3)): 0 N (%)
- Lymphopenia, patients with grade ≥3 abnormal laboratory finding (15 mg (N = 3)): 0 N (%)
- Neutropenia, patients with grade ≥3 abnormal laboratory finding (15 mg (N = 3)): 1 (33) N (%)
- Leukopenia, patients with grade ≥3 abnormal laboratory finding (15 mg (N = 3)): 0 N (%)
- Hemoglobin decreased, patients with grade ≥3 abnormal laboratory finding (15 mg (N = 3)): 0 N (%)
- Thrombocytopenia, patients with grade ≥3 abnormal laboratory finding (15 mg (N = 3)): 0 N (%)
- Weight decreased, patients with grade ≥3 abnormal vital sign (15 mg (N = 3)): 0 N (%)
- Any grade ≥3 finding/vital sign, patients with grade ≥3 abnormal laboratory findings/vital signs (20 mg (N = 6)): 4 (67) N (%)
- Blood sodium decreased, patients with grade ≥3 abnormal laboratory finding (20 mg (N = 6)): 1 (17) N (%)
- Lymphocyte count decreased, patients with grade ≥3 abnormal laboratory finding (20 mg (N = 6)): 0 N (%)
- Lymphopenia, patients with grade ≥3 abnormal laboratory finding (20 mg (N = 6)): 0 N (%)
- Neutropenia, patients with grade ≥3 abnormal laboratory finding (20 mg (N = 6)): 3 (50) N (%)
- Leukopenia, patients with grade ≥3 abnormal laboratory finding (20 mg (N = 6)): 3 (50) N (%)
- Hemoglobin decreased, patients with grade ≥3 abnormal laboratory finding (20 mg (N = 6)): 0 N (%)
- Thrombocytopenia, patients with grade ≥3 abnormal laboratory finding (20 mg (N = 6)): 0 N (%)
- Weight decreased, patients with grade ≥3 abnormal vital sign (20 mg (N = 6)): 1 (17) N (%)
- Any grade ≥3 finding/vital sign, patients with grade ≥3 abnormal laboratory findings/vital signs (25 mg (N = 6)): 6 (100) N (%)
- Blood sodium decreased, patients with grade ≥3 abnormal laboratory finding (25 mg (N = 6)): 0 N (%)
- Lymphocyte count decreased, patients with grade ≥3 abnormal laboratory finding (25 mg (N = 6)): 1 (17) N (%)
- Lymphopenia, patients with grade ≥3 abnormal laboratory finding (25 mg (N = 6)): 1 (17) N (%)
- Neutropenia, patients with grade ≥3 abnormal laboratory finding (25 mg (N = 6)): 5 (83) N (%)
- Leukopenia, patients with grade ≥3 abnormal laboratory finding (25 mg (N = 6)): 5 (83) N (%)
- Hemoglobin decreased, patients with grade ≥3 abnormal laboratory finding (25 mg (N = 6)): 1 (17) N (%)
- Thrombocytopenia, patients with grade ≥3 abnormal laboratory finding (25 mg (N = 6)): 1 (17) N (%)
- Weight decreased, patients with grade ≥3 abnormal vital sign (25 mg (N = 6)): 0 N (%)
- Patients experiencing grade ≥3 neutropenia (25 mg dose cohort): five of six
- Platelet count, mean (SD) (Cycle 1, Day 8, 10 mg (N = 3)): 227.3 (36.7) 10^3/µL
- Total ANC (absolute neutrophil count), mean (SD) (Cycle 1, Day 8, 10 mg (N = 3)): 2.00 (0.37) 10^3/µL
- White blood cell count, mean (SD) (Cycle 1, Day 8, 10 mg (N = 3)): 4.13 (0.63) 10^3/µL
- Platelet count, mean (SD) (Cycle 1, Day 8, 15 mg (N = 3)): 229.0 (35.9) 10^3/µL
- Total ANC (absolute neutrophil count), mean (SD) (Cycle 1, Day 8, 15 mg (N = 3)): 3.23 (1.26) 10^3/µL
- White blood cell count, mean (SD) (Cycle 1, Day 8, 15 mg (N = 3)): 5.50 (1.48) 10^3/µL
- Platelet count, mean (SD) (Cycle 1, Day 8, 20 mg (N = 6)): 245.7 (45.5) 10^3/µL
- Total ANC (absolute neutrophil count), mean (SD) (Cycle 1, Day 8, 20 mg (N = 6)): 1.81 (0.99) 10^3/µL
- White blood cell count, mean (SD) (Cycle 1, Day 8, 20 mg (N = 6)): 2.97 (1.06) 10^3/µL
- Platelet count, mean (SD) (Cycle 1, Day 8, 25 mg (N = 6)): 246.5 (99.7) 10^3/µL
- Total ANC (absolute neutrophil count), mean (SD) (Cycle 1, Day 8, 25 mg (N = 6)): 2.00 (0.97) 10^3/µL
- White blood cell count, mean (SD) (Cycle 1, Day 8, 25 mg (N = 6)): 3.01 (0.99) 10^3/µL
- Platelet count, mean (SD) [1]: 240.1 (62.6) 10^3/µL
- Total ANC (absolute neutrophil count), mean (SD) [1]: 2.14 (1.01) 10^3/µL
- White blood cell count, mean (SD) [1]: 3.60 (1.37) 10^3/µL
- Platelet count, mean (SD) (Cycle 1, Day 15, 10 mg (N = 3)): 203.3 (46.5) 10^3/µL
- Total ANC (absolute neutrophil count), mean (SD) (Cycle 1, Day 15, 10 mg (N = 3)): 1.25 (0.27) 10^3/µL
- White blood cell count, mean (SD) (Cycle 1, Day 15, 10 mg (N = 3)): 3.59 (0.69) 10^3/µL
- Platelet count, mean (SD) (Cycle 1, Day 15, 15 mg (N = 3)): 217.0 (6.1) 10^3/µL
- Total ANC (absolute neutrophil count), mean (SD) (Cycle 1, Day 15, 15 mg (N = 3)): 2.33 (1.62) 10^3/µL
- White blood cell count, mean (SD) (Cycle 1, Day 15, 15 mg (N = 3)): 4.66 (2.19) 10^3/µL
- Platelet count, mean (SD) (Cycle 1, Day 15, 20 mg (N = 6)): 265.2 (79.5) 10^3/µL
- Total ANC (absolute neutrophil count), mean (SD) (Cycle 1, Day 15, 20 mg (N = 6)): 1.49 (0.82) 10^3/µL
- White blood cell count, mean (SD) (Cycle 1, Day 15, 20 mg (N = 6)): 2.82 (1.20) 10^3/µL
- Platelet count, mean (SD) (Cycle 1, Day 15, 25 mg (N = 6)): 184.5 (85.1) 10^3/µL
- Total ANC (absolute neutrophil count), mean (SD) (Cycle 1, Day 15, 25 mg (N = 6)): 0.57 (0.50) 10^3/µL
- White blood cell count, mean (SD) (Cycle 1, Day 15, 25 mg (N = 6)): 1.58 (0.57) 10^3/µL
- Platelet count, mean (SD) [2]: 219.9 (73.9) 10^3/µL
- Total ANC (absolute neutrophil count), mean (SD) [2]: 1.28 (0.99) 10^3/µL
- White blood cell count, mean (SD) [2]: 2.84 (1.55) 10^3/µL
- Platelet count, mean (SD) (Cycle 1, Day 22, 10 mg (N = 3)): 205.0 (54.0) 10^3/µL
- Total ANC (absolute neutrophil count), mean (SD) (Cycle 1, Day 22, 10 mg (N = 3)): 1.68 (0.35) 10^3/µL
